The structures appear in SMILES notation. The source made the active and inactive calls. The calls are words filed in the database; no cut-off is given here.

For experiment [1], the target named is T1, 5-hydroxytryptamine receptor 1A (Rattus norvegicus, UniProt P19327).
T1 sequence (P19327 whole entry): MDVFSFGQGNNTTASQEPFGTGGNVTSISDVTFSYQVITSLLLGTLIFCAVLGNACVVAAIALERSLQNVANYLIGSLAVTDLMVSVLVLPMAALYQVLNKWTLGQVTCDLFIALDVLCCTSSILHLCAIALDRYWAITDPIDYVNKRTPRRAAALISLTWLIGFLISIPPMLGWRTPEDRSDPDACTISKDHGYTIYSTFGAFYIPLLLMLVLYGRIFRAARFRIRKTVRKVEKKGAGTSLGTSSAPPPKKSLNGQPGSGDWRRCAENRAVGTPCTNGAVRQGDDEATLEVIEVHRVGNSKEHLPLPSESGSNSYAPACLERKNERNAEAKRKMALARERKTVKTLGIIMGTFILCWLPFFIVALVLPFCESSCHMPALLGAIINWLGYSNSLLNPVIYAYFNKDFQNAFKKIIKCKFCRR
The experiment in a line: Displacement of [3H]8-OH-DPAT from 5-HT1A receptor in rat hippocampus. In kind it is tissue-based. For orientation: Loss of bound radioactivity is the signal in a displacement assay; it reports binding, not function.

The target of experiment [2] is Sodium-dependent serotonin transporter (Rattus norvegicus, UniProt P31652). The experiment in a line: Displacement of [3H]citalopram from SERT in rat cerebral cortex by liquid scintillation counting. The class given is tissue-based.
Chain of Sodium-dependent serotonin transporter (P31652 whole entry): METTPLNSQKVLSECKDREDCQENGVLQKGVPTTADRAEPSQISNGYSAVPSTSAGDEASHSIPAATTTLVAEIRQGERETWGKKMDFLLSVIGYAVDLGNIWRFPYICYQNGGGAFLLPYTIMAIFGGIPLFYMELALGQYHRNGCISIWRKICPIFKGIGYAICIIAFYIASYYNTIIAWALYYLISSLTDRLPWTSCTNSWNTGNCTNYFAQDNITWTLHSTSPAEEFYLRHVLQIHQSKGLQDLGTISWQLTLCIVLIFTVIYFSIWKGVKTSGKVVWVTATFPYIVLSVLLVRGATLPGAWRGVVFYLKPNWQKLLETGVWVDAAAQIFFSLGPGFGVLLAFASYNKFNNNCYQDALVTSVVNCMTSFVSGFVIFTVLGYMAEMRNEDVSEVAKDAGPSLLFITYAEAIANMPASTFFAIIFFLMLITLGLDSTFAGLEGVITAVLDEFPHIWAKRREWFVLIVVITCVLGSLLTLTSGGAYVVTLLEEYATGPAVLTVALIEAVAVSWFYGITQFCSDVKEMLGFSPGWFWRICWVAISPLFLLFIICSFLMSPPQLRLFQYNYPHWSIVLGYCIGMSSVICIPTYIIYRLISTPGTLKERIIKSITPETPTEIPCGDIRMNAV
Experiment [3] has as its system Mus musculus. Put plainly: Reduction of 8-OH-DPAT-induced hypothermia in Swiss albino mouse at 20 mg/kg, ip administered 45 mins prior 8-OH-DPAT challenge measured after 15 mins by inducible hypothermia test. In kind it is functional, organism-based. Further details: dose 20 mg/kg.
Experiment [4] concerns Mus musculus. Put plainly: Reduction of 8-OH-DPAT-induced hypothermia in Swiss albino mouse at 20 mg/kg, ip administered 45 mins prior 8-OH-DPAT challenge measured after 30 mins by inducible hypothermia test. The class given is functional, organism-based. Also noted: dose 20 mg/kg.
Experiment [5] relates to Mus musculus. The experiment in a line: Reduction of 8-OH-DPAT-induced hypothermia in Swiss albino mouse at 20 mg/kg, ip administered 45 mins prior 8-OH-DPAT challenge measured after 45 mins by inducible hypothermia test. In kind it is functional, organism-based. Also noted: dose 20 mg/kg.
Experiment [6] has as its system Mus musculus. Put plainly: Reduction of 8-OH-DPAT-induced hypothermia in Swiss albino mouse at 20 mg/kg, ip administered 45 mins prior 8-OH-DPAT challenge measured after 60 mins by inducible hypothermia test. The class given is functional, organism-based. Also noted: dose 20 mg/kg.
For experiment [7], the system named is Mus musculus. The experiment in a line: Effect on hypothermia in Swiss albino mouse assessed as change in rectal body temperature at 5 mg/kg, ip after 30 mins by inducible hypothermia test. Further details: dose 5 mg/kg. In kind it is functional, organism-based.
Experiment [8] relates to Mus musculus. Put plainly: Effect on hypothermia in Swiss albino mouse assessed as change in rectal body temperature at 5 mg/kg, ip after 60 mins by inducible hypothermia test. Further details: dose 5 mg/kg. The class given is functional, organism-based.
The subject of experiment [9] is Mus musculus. Put plainly: Effect on hypothermia in Swiss albino mouse assessed as change in rectal body temperature at 5 mg/kg, ip after 90 mins by inducible hypothermia test. The class given is functional, organism-based. Also noted: dose 5 mg/kg.
Experiment [10] relates to Mus musculus. Put plainly: Effect on hypothermia in Swiss albino mouse assessed as change in rectal body temperature at 5 mg/kg, ip after 120 mins by inducible hypothermia test. Also noted: dose 5 mg/kg. In kind it is functional, organism-based.
Experiment [11] concerns Mus musculus. The experiment in a line: Effect on hypothermia in Swiss albino mouse assessed as change in rectal body temperature at 2.5 mg/kg, ip after 30 mins by inducible hypothermia test. Further details: dose 2.5 mg/kg. In kind it is functional, organism-based.
Experiment [12] relates to Mus musculus. The experiment in a line: Effect on hypothermia in Swiss albino mouse assessed as change in rectal body temperature at 2.5 mg/kg, ip after 60 mins by inducible hypothermia test. Also noted: dose 2.5 mg/kg. The class given is functional, organism-based.
Experiment [13] has as its system Mus musculus. Put plainly: Effect on hypothermia in Swiss albino mouse assessed as change in rectal body temperature at 2.5 mg/kg, ip after 90 mins by inducible hypothermia test. The class given is functional, organism-based. Further details: dose 2.5 mg/kg.
Experiment [14] deals with Mus musculus. The experiment in a line: Effect on hypothermia in Swiss albino mouse assessed as change in rectal body temperature at 2.5 mg/kg, ip after 120 mins by inducible hypothermia test. Also noted: dose 2.5 mg/kg. In kind it is functional, organism-based.
Experiment [15] has as its system Mus musculus. The experiment in a line: Effect on hypothermia in Swiss albino mouse assessed as change in rectal body temperature at 5 mg/kg, ip dosed 15 mins after 0.1 mg/kg, sc WAY 100635 challenge measured after 30 mins by inducible hypothermia test. The class given is functional, organism-based.
The test system of experiment [16] is Mus musculus. Put plainly: Effect on hypothermia in Swiss albino mouse assessed as change in rectal body temperature at 5 mg/kg, ip dosed 15 mins after 0.1 mg/kg, sc WAY 100635 challenge measured after 60 mins by inducible hypothermia test. The class given is functional, organism-based.
Experiment [17] deals with Mus musculus. The experiment in a line: Antidepressant activity in Swiss albino mouse assessed as total immobility time at 2.5 mg/kg, ip administered 30 mins before test measured 6 mins test session after 2 mins habituation period by forced swimming test. The class given is functional, organism-based. Further details: dose 2.5 mg/kg.
For experiment [18], the system named is Mus musculus. Put plainly: Antidepressant activity in Swiss albino mouse assessed as total immobility time at 5 mg/kg, ip administered 30 mins before test measured 6 mins test session after 2 mins habituation period by forced swimming test. The class given is functional, organism-based. Also noted: dose 5 mg/kg.

One may read the Ki as a dissociation constant, usually derived from enzyme kinetics or from competition with a known ligand. Low values mean tighter binding, high ones weaker binding. Take `O=c1c(-c2ccc(F)cc2)c2n(c(=O)n1CCCCN1CCC(c3c[nH]c4ccccc34)CC1)CCCC2`: the Ki was 62.3 nM in [1] and 47 nM in [2]. Besides, the deltaT in the experiment on Mus musculus [3] was -0.7 °C; with Mus musculus [4], -1.6 °C; in the experiment on Mus musculus [5], -1.1 °C; with Mus musculus [6] it was -0.6 °C.

In the case of `O=c1c(-c2ccc(Cl)cc2)c2n(c(=O)n1CCCCN1CCC(c3c[nH]c4ccccc34)CC1)CCCC2`, the Ki came out at 48.6 nM in [1] and 44.1 nM in experiment [2]. Besides, the deltaT with Mus musculus [7] is -1 °C; in the experiment with Mus musculus [8], -0.5 °C; in the experiment with Mus musculus [9], -0.4 °C; in the experiment on Mus musculus [10], -0.3 °C; with Mus musculus [11], -0.3 °C; with Mus musculus [12], -0.4 °C. Moreover, the deltaT in the experiment on Mus musculus [13] was -0.1 °C; in the experiment with Mus musculus [14], -0.1 °C; with Mus musculus [15] it was -0.2 °C; in the experiment on Mus musculus [16], -0.1 °C. The outcome in the experiment on Mus musculus [17] and in the experiment with Mus musculus [18] was inactive.

These data come from ChEMBL document CHEMBL1649369, “Novel 4-aryl-pyrido[1,2-c]pyrimidines with dual SSRI and 5-HT(1A) activity. part 3” (Eur J Med Chem, 2011).
